Test results reported in PMC11375786, “Induction of Paraptotic Cell Death in Cancer Cells by Triptycene–Peptide Hybrids and the Revised Mechanism of Paraptosis II” (Biochemistry, 2024).
Like-named read-outs stand apart in the source and are kept apart here.

Columns and labels:
[1] = system: intracellular Zn^2+ in Jurkat cells; experiment: Zinquin fluorescence microscopy in Jurkat cells; format: cell-based; conditions: 4 2.5 μM 1 h; celastrol 5 μM, etoposide 5 μM, cisplatin 100 μM 24 h
Description: (§1) Jurkat cells (2.0 × 10^5 cells) were treated with 4 (2.5 μM), etoposide (5 μM), cisplatin (100 μM) and celastrol (5 μM) and stained with Mito-FerroGreen (a probe for labile Fe^2+ in mitochondria) (5 μM) and zinquin (a probe for intracellular Zn^2+) (25 μM). The cell images were observed via fluorescence microscopy.

[2] = system: Ca^2+ concentrations in mitochondria in IMR90 cells; experiment: Rhod-2/AM emission (mitochondrial Ca2+) in IMR90 cells; format: cell-based, human; conditions: 4 5 μM, 0–60 min
Description: (§2) Jurkat, HeLa-S3, A549, and IMR90 cells (2.0 × 10^5 cells) were stained with Rhod-2/AM or Rhod-4/AM (final concentration = 5 μM) for 30 min at 37 °C under 5% CO2. The cells were washed with PBS and were treated with 4 (final concentration = 2.5, 5, or 10 μM) in cell culture medium for 30 and 60 min at 37 °C under 5% CO2. To test the effect of celastrol and cisplatin in HeLa-S3 and A549 cells, the cells were incubated with celastrol (final concentration = 100 μM) and cisplatin (final concentration = 100 μM) for 2–6 h. After washing with PBS, the cells were observed via fluorescence microscopy (BZ-X800, Keyence) using a Greiner CELLview Petri dish (35 × 10 mm^2). Emission images were observed using a TRITC filter (excitation 540 nm, emission 605 nm).
(§3) Jurkat, HeLa-S3, A549, and IMR90 cells (8.0 × 10^4 cells) were incubated with CCCP or 2-APB for 1 h and then stained with Rhod-2/AM or Rhod-4/AM (final concentration = 5 μM) for 30 min at 37 °C under 5% CO2. The cells were washed with PBS and were treated with 4 (final concentration = 2.5, 5, or 10 μM) in PBS for 0–60 min at 37 °C in a microplate reader (ARVO, PerkinElmer). Excitation at 540 nm and emission at 590 nm were used for the measurement of Rhod-2/AM and Rhod-4/AM on the microplate reader.

A549 cells [3] = experiment: Costaining of ER and mitochondria (ERTracker Red, MitoTracker Green), confocal microscopy, A549 cells; format: cell-based, human; conditions: 4 10 μM, 15 min; celastrol 100 μM
Description: (§4) Jurkat, HeLa-S3, A549, and IMR90 cells (2.0 × 10^5 cells) were incubated with 4 (final concentration = 2.5 μM (for Jurkat), 5 μM (for HeLa-S3), 10 μM (for A549) and 5 μM and 50 μM (for IMR90)) in cell culture medium at 37 °C under 5% CO2. After incubation, MitoTracker Green (final concentration = 100 nM (for Jurkat) or 500 nM (for HeLa-S3, A549 and IMR90)), or ERTracker Red (final concentration = 500 nM (for Jurkat) or 1 μM (for HeLa-S3, A549 and IMR90)) were applied for 1 h under the same conditions. After washing with PBS, the cells were observed via confocal fluorescence microscopy (FluoView, FV-1000, Olympus). Excitation at 473 nm and emissions from 485 to 585 nm were used for detecting the MitoTracker Green. Excitation at 559 nm and emissions from 570 to 670 nm were used for detecting the ERTracker Red. Exposure time was 20 μs/pixel.

Jurkat cells [4] = experiment: Costaining of ER and mitochondria (ERTracker Red, MitoTracker Green), confocal microscopy, Jurkat cells; format: cell-based; conditions: 4 2.5 μM, 15 min
Description: as §4

Jurkat cells [5] = format: cell-based; conditions: 1 h
Description: (§5) MTT reagent (5 mg/mL) in PBS (10 μL) was then added to the cells. After incubation at 37 °C for 4 h, a formazan lysis solution (10% sodium dodecyl sulfate (SDS) in 0.01 N HCl) (100 μL) was added and the resultant solution was incubated overnight under the same conditions, which was followed by measurement of the absorbance at 570 nm using a microplate reader (ARVO, PerkinElmer).

[6] = system: Ca^2+ concentrations in mitochondria and cytosol in Jurkat cells; experiment: Rhod-2/AM and Rhod-4/AM emission (mitochondrial and cytosolic Ca2+) in Jurkat cells; format: cell-based; conditions: 4 2.5 μM, 0–60 min
Description: (§6) Jurkat, HeLa-S3, and A549 cells (2.0 × 10^5 cells) were preincubated with Rhod-2/AM (final concentration = 5 μM) or Rhod-4/AM (final concentration = 5 μM) in medium under 5% CO2 at 37 °C for 30 min and then treated with 4 (final concentration = 2.5, 5, or 10 μM) for 0, 15, 30, 45, and 60 min. HeLa-S3 and A549 cells were detached by accutase, immediately after which the cells were suspended in 300 μL of cell culture medium and then analyzed on a flow cytometer (FACS Calibur cytometer, Becton), and the data were analyzed using the FlowJo software (FlowJo, LCC).
Jurkat, HeLa-S3, A549, and IMR90 cells (2.0 × 10^5 cells) were stained with Rhod-2/AM or Rhod-4/AM (final concentration = 5 μM) for 30 min at 37 °C under 5% CO2. […] After washing with PBS, the cells were observed via fluorescence microscopy (BZ-X800, Keyence) using a Greiner CELLview Petri dish (35 × 10 mm^2). […]
as §3

HeLa-S3 cells [7] = experiment: Costaining of ER and mitochondria (ERTracker Red, MitoTracker Green), confocal microscopy, HeLa-S3 cells; format: cell-based, human; conditions: 4 5 μM, 5 and 10 min; celastrol 100 μM
Description: as §4

[8] = system: labile Fe^2+ in mitochondria of Jurkat cells; experiment: Mito-FerroGreen fluorescence microscopy in Jurkat cells; format: cell-based; conditions: 4 2.5 μM 1 h; celastrol 5 μM, etoposide 5 μM, cisplatin 100 μM 24 h
Description: as §1

[9] = system: Ca^2+ concentrations in mitochondria and cytosol in A549 cells; experiment: Rhod-2/AM and Rhod-4/AM emission (mitochondrial and cytosolic Ca2+) in A549 cells; format: cell-based, human; conditions: 4 10 μM 1 h; celastrol 100 μM 2–6 h
Description: as §6, §2, §3

IMR90 cells [10] = experiment: Costaining of ER and mitochondria (ERTracker Red, MitoTracker Green), confocal microscopy, IMR90 cells; format: cell-based, human; conditions: 4 5 or 50 μM, 15 or 60 min
Description: as §4

IMR90 cells [11] = experiment: cells
Description: (§7) HeLa S3 cells (human cervical carcinoma) were cultured in Minimum essential medium (MEM) containing 10% FBS, penicillin, and streptomycin. A549 cells (human lung carcinoma) and IMR90 cells (human fetal lung fibroblast) were cultured in Dulbecco’s modified Eagle’s medium (DMEM) with 10% FBS, penicillin, and streptomycin. All cells were cultured at 37 °C under a humidified atmosphere containing 5% CO2.
as §5, with “Jurkat, HeLa-S3, A549 cells (2.0 × 10^5 cells/mL) and IMR90 cells (1.0 × 10^5 cells/mL) were incubated in the presence of 3–7 for 1 h, and etoposide, cisplatin and celastrol for 24 h (50 μL) in cell culture medium under CO2 at 37 °C in 96-well plates (BD Falcon). MTT” for “MTT”

A549 cells [12] = experiment: cells; conditions: 1 h
Description: as §7
as §5, with “Jurkat, HeLa-S3, A549 cells (2.0 × 10^5 cells/mL) and IMR90 cells (1.0 × 10^5 cells/mL) were incubated in the presence of 3–7 for 1 h, and etoposide, cisplatin and celastrol for 24 h (50 μL) in cell culture medium under CO2 at 37 °C in 96-well plates (BD Falcon). MTT” for “MTT”

Jurkat cells [13] = experiment: cells; conditions: 1 h
Description: as §7
as §5, with “Jurkat, HeLa-S3, A549 cells (2.0 × 10^5 cells/mL) and IMR90 cells (1.0 × 10^5 cells/mL) were incubated in the presence of 3–7 for 1 h, and etoposide, cisplatin and celastrol for 24 h (50 μL) in cell culture medium under CO2 at 37 °C in 96-well plates (BD Falcon). MTT” for “MTT”

HeLa-S3 cells [14] = experiment: cells; conditions: 1 h
Description: as §7
as §5, with “Jurkat, HeLa-S3, A549 cells (2.0 × 10^5 cells/mL) and IMR90 cells (1.0 × 10^5 cells/mL) were incubated in the presence of 3–7 for 1 h, and etoposide, cisplatin and celastrol for 24 h (50 μL) in cell culture medium under CO2 at 37 °C in 96-well plates (BD Falcon). MTT” for “MTT”

[15] = system: Ca^2+ concentrations in mitochondria and cytosol in HeLa-S3 cells; experiment: Rhod-2/AM and Rhod-4/AM emission (mitochondrial and cytosolic Ca2+) in HeLa-S3 cells; format: cell-based, human; conditions: 4 5 μM 1 h
Description: as §6, §2, §3

SMILES: NCCCC[C@H](NC(=O)[C@H](CCCCN)NC(=O)[C@@H](N)CCCCN)C(=O)N[C@@H](CC1CCCCC1)C(=O)NCC(=O)NCCCCCCCCNC(=O)COc1cccc2c1C1c3c(OCC(=O)NCCCCCCCCNC(=O)CNC(=O)[C@H](CC4CCCCC4)NC(=O)[C@H](CCCCN)NC(=O)[C@H](CCCCN)NC(=O)[C@@H](N)CCCCN)cccc3C2c2cccc(OCC(=O)NCCCCCCCCNC(=O)CNC(=O)[C@H](CC3CCCCC3)NC(=O)[C@H](CCCCN)NC(=O)[C@H](CCCCN)NC(=O)[C@@H](N)CCCCN)c21 [compound 4]
- Emission from zinquin (intracellular free Zn2+) in Jurkat cells [1]: negligibly enhanced
- Emission of Rhod-2/AM (mitochondrial Ca2+) in IMR90 cells [2]: somewhat slower emission enhancement
- Overlap of emission from MitoTracker Green and ERTracker Red in A549 cells (A549 cells [3]): considerable overlap
- Overlap of emission from MitoTracker Green and ERTracker Red in Jurkat cells (Jurkat cells [4]): considerable overlap
- EC50 (Jurkat cells [5]): 1800 nM
- Emission of Rhod-4/AM (cytosolic Ca2+) in Jurkat cells [6]: moderate∼weak enhancement
- Overlap of emission from MitoTracker Green and ERTracker Red in HeLa-S3 cells (HeLa-S3 cells [7]): considerable overlap
- Emission from Mito-FerroGreen (free Fe2+ in mitochondria) in Jurkat cells [8]: negligibly enhanced
- Emission of Rhod-2/AM (mitochondrial Ca2+) in A549 cells [9]: enhancement of the red emission
- Emission of Rhod-4/AM (cytosolic Ca2+) in A549 cells [9]: negligible enhancement
- Overlap of emission from MitoTracker Green and ERTracker Red in IMR90 cells (IMR90 cells [10]): weak overlap
- EC50 (IMR90 cells [11]; 1 h): > 12500 nM
- EC50 (IMR90 cells [11]; 5 h): 4400 nM
- EC50 (A549 cells [12]): 2400 ± 100 nM
- EC50 (Jurkat cells [13]): 700 ± 100 nM
- EC50 (HeLa-S3 cells [14]): 1600 ± 100 nM
- Emission of Rhod-4/AM (cytosolic Ca2+) in HeLa-S3 cells ([15]; celastrol 100 μM 2–6 h): negligible enhancement
- Emission of Rhod-2/AM (mitochondrial Ca2+) in HeLa-S3 cells ([15]; celastrol or cisplatin 100 μM 2–6 h): enhancement of the red emission
